# Source: PMC11245519, “Ubiquitous purine sensor modulates diverse signal transduction pathways in bacteria” (Nature Communications, 2024)
# Read-outs that look alike come from different tables or passages of the source.
# Experiments:
# R11 (WP_162024566-LBD) [1] = test: Microcalorimetric titration (ITC) of the R11 LBD with ligands; type: binding, Lentimonas sp. CC4; details: 25 °C; for Binding in microcalorimetric titration, R11: pH 7.0
# R13 (WP_167859577-LBD) = type: binding, Paenibacillus cymbidii; details: change in Tm, threshold 2 °C; 2 mM ligand (Supplementary Fig. 7)
# R5 (WP_131005693-LBD) [2] = test: Microcalorimetric titration (ITC) of the R5 LBD with ligands; type: binding, Clostridioides difficile; details: 25 °C, pH 7.0
# R15 (WP_207952809-LBD) [3] = biological target: T1, R15 (WP_207952809-LBD) (Paenibacillus agricola, UniProt A0ABX0IZG8); test: Microcalorimetric titration (ITC) of the R15 LBD with ligands; type: binding, Paenibacillus sp. S3N08; details: for Binding in microcalorimetric titration, R15 / Kd: 25 °C; for Binding in microcalorimetric titration, R15: pH 7.0; for Kd: pH 7.0, read-out: Dissociation constant, R15; for N value, R15: One binding site model, * = hyperbolic curve
# T1 sequence (A0ABX0IZG8 entry or part of it): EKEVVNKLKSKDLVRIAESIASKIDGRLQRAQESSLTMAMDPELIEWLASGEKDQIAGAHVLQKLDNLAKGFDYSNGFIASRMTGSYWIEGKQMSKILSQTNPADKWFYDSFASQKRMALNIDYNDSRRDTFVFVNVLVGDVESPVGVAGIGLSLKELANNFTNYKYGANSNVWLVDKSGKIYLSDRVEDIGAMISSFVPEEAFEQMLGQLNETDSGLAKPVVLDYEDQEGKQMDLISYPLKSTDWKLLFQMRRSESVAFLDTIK
# R14 (WP_021170906-LBD) [4] = biological target: T2, R14 (WP_021170906-LBD) (Sporomusa ovata, UniProt A0A0U1L1T7); test: Microcalorimetric titration (ITC) of the R14 LBD with ligands; type: binding; details: for Kd: read-out: Dissociation constant, R14
# T2 sequence (A0A0U1L1T7 entry or part of it): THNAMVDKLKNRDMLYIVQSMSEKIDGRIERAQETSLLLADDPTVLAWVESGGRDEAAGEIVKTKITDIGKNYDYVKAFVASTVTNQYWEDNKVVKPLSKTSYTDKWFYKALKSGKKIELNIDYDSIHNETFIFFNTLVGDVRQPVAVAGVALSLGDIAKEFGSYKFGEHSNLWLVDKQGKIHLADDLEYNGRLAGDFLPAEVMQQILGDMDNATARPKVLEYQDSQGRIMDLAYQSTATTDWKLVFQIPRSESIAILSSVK
# R4 (WP_199478134-LBD) [5] = type: binding, Marinomonas spartinae; details: ITC, 25 °C, pH 8.0; read-out: Dissociation constant, R4
# R5 (WP_131005693-LBD) [6] = test: Thermal shift assay of the R5 LBD; type: binding, Clostridioides difficile; details: change in Tm, threshold 2 °C
# R1 (WP_219614703-LBD) [7] = biological target: T3, R1 (WP_219614703-LBD) (Aeromonas salmonicida, UniProt T0PLV6); test: Microcalorimetric titration (ITC) of the R1 LBD with ligands; type: binding; details: for Kd: read-out: Dissociation constant, R1
# R10 (WP_110129388-LBD) = type: binding, Coraliomargarita sinensis; details: change in Tm, threshold 2 °C; for Binding in thermal shift assay, R10 (Supplementary Table 3): cells left empty in Table 3; for Binding in thermal shift assay, R10: 2 mM ligand (Supplementary Fig. 7)
# R6 (WP_185834821-LBD) [8] = biological target: T4, R6 (WP_185834821-LBD) (Vibrio cholerae, UniProt Q9KPY8); test: Thermal shift assay of the R6 LBD; type: binding; details: change in Tm, threshold 2 °C
# R1 (WP_219614703-LBD) [9] = biological target: T3, R1 (WP_219614703-LBD); type: binding; details: change in Tm, threshold 2 °C
# R4 (WP_199478134-LBD) [10] = test: Thermal shift assay of the R4 LBD; type: binding, Marinomonas spartinae; details: change in Tm, threshold 2 °C
# R14 (WP_021170906-LBD) [11] = biological target: T2, R14 (WP_021170906-LBD); test: Thermal shift assay of the R14 LBD; type: binding; details: change in Tm, threshold 2 °C
# R8 (WP_227113344-LBD) = R8 (WP_227113344-LBD) (Eggerthella sinensis, UniProt A0ABX9HL97); test: Microcalorimetric titration (ITC) of the R8 LBD with ligands; type: binding
# [12] = test system: dCache_1PU domains (11 proteins analyzed); test: Summary of binding data (thermal shift assays and ITC) for the 11 dCache_1PU proteins; details: of the 11 proteins analyzed
# R11 (WP_162024566-LBD) [13] = test: Thermal shift assay of the R11 LBD; type: binding, Lentimonas sp. CC4; details: change in Tm, threshold 2 °C
# R6 (WP_185834821-LBD) [14] = biological target: T4, R6 (WP_185834821-LBD); test: biochemical; type: binding
# [15] = test system: R6 diguanylate cyclase (VC2224) expressed in P. putida KT2440 pCdrA::gfpC; type: cell-based
# [16] = test system: members of the family dCache_1PU (11 soluble LBDs); test: Thermal shift ligand screening of all dCache_1PU proteins (Biolog arrays PM3B and PM5); type: binding
# R15 (WP_207952809-LBD) [17] = biological target: T1, R15 (WP_207952809-LBD); test: Thermal shift assay of the R15 LBD; type: binding, Paenibacillus sp. S3N08; details: change in Tm, threshold 2 °C
# [18] = ITC, One binding site model, * = hyperbolic curve
Compound,"Binding in microcalorimetric titration, R11 (R11 (WP_162024566-LBD) [1])","Binding in thermal shift assay, R13 (R13 (WP_167859577-LBD))","Binding in microcalorimetric titration, R15 (R15 (WP_207952809-LBD) [3])","Kd (R14 (WP_021170906-LBD) [4]; ITC, 25 °C) [µM]","N value, R14 (R14 (WP_021170906-LBD) [4]; [18])",Kd (R4 (WP_199478134-LBD) [5]) [µM],"Binding in thermal shift assay, R5 (R5 (WP_131005693-LBD) [6])","Kd (R1 (WP_219614703-LBD) [7]; ITC, 25 °C, pH 7.0) [µM]","Binding in thermal shift assay, R4 (R4 (WP_199478134-LBD) [10])",Shift in the thermal shift assays [16],also measured
c1ncc2nc[nH]c2n1 [Purine],Nb^a,"Nts^b (no binding observed in thermal shift assays, i.e., compounds caused changes in the midpoint of protein unfolding (Tm) of less than 2 °C)",Nb^a,94 ± 19,0.19,2.3 ± 0.3,–,–,–,–,"Binding in microcalorimetric titration, R5 (R5 (WP_131005693-LBD) [2]): Nb^a"
Cc1c[nH]c(=O)[nH]c1=O [Thymine],–,"Nts^b (no binding observed in thermal shift assays, i.e., compounds caused changes in the midpoint of protein unfolding (Tm) of less than 2 °C)",Nb^a,32 ± 8.9,0.99,21 ± 0.4,"Nts^b (no binding observed in thermal shift assays, i.e., compounds caused changes in the midpoint of protein unfolding (Tm) of less than 2 °C)",595 ± 47,–,–,"Kd (R11 (WP_162024566-LBD) [1]; pH 7.0, 1 mM β-mercaptoethanol, read-out: Dissociation constant, R11): 854 ± 254 µM; N value, R1 (R1 (WP_219614703-LBD) [7]; [18]): 0.20"
Nc1ncnc2c1ncn2[C@@H]1O[C@H](CO)[C@@H](O)[C@H]1O [Adenosine],Nb^a,"Nts^b (no binding observed in thermal shift assays, i.e., compounds caused changes in the midpoint of protein unfolding (Tm) of less than 2 °C)",Nb^a,17 ± 4.1,–,88 ± 12,"Nts^b (no binding observed in thermal shift assays, i.e., compounds caused changes in the midpoint of protein unfolding (Tm) of less than 2 °C)",1.1 ± 0.1,–,–,"N value, R1 (R1 (WP_219614703-LBD) [7]): 0.13; Binding in thermal shift assay, R10 (Supplementary Table 3) (R10 (WP_110129388-LBD)): Nts (No binding observed in thermal shift assays, i.e. compounds caused changes in the midpoint of protein unfolding (Tm) of less than 2 ºC); Binding in thermal shift assay, R6 (R6 (WP_185834821-LBD) [8]): Nts^b (no binding observed in thermal shift assays, i.e., compounds caused changes in the midpoint of protein unfolding (Tm) of less than 2 °C); N value, R14 (R14 (WP_021170906-LBD) [4]): 0.41"
O=c1[nH]c(=O)c2[nH]c(=O)[nH]c2[nH]1 [Uric acid],Nb^a,"Nts^b (no binding observed in thermal shift assays, i.e., compounds caused changes in the midpoint of protein unfolding (Tm) of less than 2 °C)",Nb^a,–,–,–,–,–,"Nts^b (no binding observed in thermal shift assays, i.e., compounds caused changes in the midpoint of protein unfolding (Tm) of less than 2 °C)",–,"Binding in thermal shift assay, R1 (R1 (WP_219614703-LBD) [9]): Nts^b (no binding observed in thermal shift assays, i.e., compounds caused changes in the midpoint of protein unfolding (Tm) of less than 2 °C); Binding in thermal shift assay, R10 (Supplementary Table 3) (R10 (WP_110129388-LBD)): Nts (No binding observed in thermal shift assays, i.e. compounds caused changes in the midpoint of protein unfolding (Tm) of less than 2 ºC); Binding in thermal shift assay, R6 (R6 (WP_185834821-LBD) [8]): Nts^b (no binding observed in thermal shift assays, i.e., compounds caused changes in the midpoint of protein unfolding (Tm) of less than 2 °C); Binding in microcalorimetric titration, R5 (R5 (WP_131005693-LBD) [2]): Nb^a; Binding in thermal shift assay, R14 (R14 (WP_021170906-LBD) [11]): Nts^b (no binding observed in thermal shift assays, i.e., compounds caused changes in the midpoint of protein unfolding (Tm) of less than 2 °C)"
O=c1[nH]c(=O)c2nc[nH]c2[nH]1 [Xanthine],Nb^a,"Nts^b (no binding observed in thermal shift assays, i.e., compounds caused changes in the midpoint of protein unfolding (Tm) of less than 2 °C)",–,5.1 ± 0.9,0.13,–,–,–,"Nts^b (no binding observed in thermal shift assays, i.e., compounds caused changes in the midpoint of protein unfolding (Tm) of less than 2 °C)",–,"N value, R8 (R8 (WP_227113344-LBD); One binding site model, * = hyperbolic curve): 0.15; Binding in microcalorimetric titration, R1 (R1 (WP_219614703-LBD) [7]; ITC, 25 °C, pH 7.0): Nb^a; Binding in thermal shift assay, R10 (R10 (WP_110129388-LBD)): Tsa^c (binding observed in thermal shift assays, i.e., compounds caused changes in Tm of more than 2 °C); Binding in thermal shift assay, R6 (R6 (WP_185834821-LBD) [8]): Nts^b (no binding observed in thermal shift assays, i.e., compounds caused changes in the midpoint of protein unfolding (Tm) of less than 2 °C); Binding in microcalorimetric titration, R5 (R5 (WP_131005693-LBD) [2]): Nb^a; Kd (R15 (WP_207952809-LBD) [3]): 7.6 ± 1.1 µM; N value, R15 (R15 (WP_207952809-LBD) [3]): 0.05; Proteins that bound / recognized the ligand [12]: 2"
Nc1nc2c(ncn2[C@@H]2O[C@H](CO)[C@@H](O)[C@H]2O)c(=O)[nH]1 [Guanosine],–,"Nts^b (no binding observed in thermal shift assays, i.e., compounds caused changes in the midpoint of protein unfolding (Tm) of less than 2 °C)",–,25 ± 4.9,0.13,–,"Nts^b (no binding observed in thermal shift assays, i.e., compounds caused changes in the midpoint of protein unfolding (Tm) of less than 2 °C)",1.2 ± 0.1,"Nts^b (no binding observed in thermal shift assays, i.e., compounds caused changes in the midpoint of protein unfolding (Tm) of less than 2 °C)",–,"Binding in thermal shift assay, R11 (R11 (WP_162024566-LBD) [13]): Tsa^c (binding observed in thermal shift assays, i.e., compounds caused changes in Tm of more than 2 °C); N value, R1 (R1 (WP_219614703-LBD) [7]; [18]): 0.21; Binding in thermal shift assay, R10 (R10 (WP_110129388-LBD)): Tsa^c (binding observed in thermal shift assays, i.e., compounds caused changes in Tm of more than 2 °C); Kd (R6 (WP_185834821-LBD) [14]): 25 ± 5.2 µM; N value, R6 (R6 (WP_185834821-LBD) [14]; [18]): 0.35; Kd (R15 (WP_207952809-LBD) [3]): 37 ± 4 µM; N value, R15 (R15 (WP_207952809-LBD) [3]): 0.70; Concentration causing high c-di-GMP levels ([15]; agar plates, wild-type R6 (VC2224)): 1 mM; Concentration at which colonies became wrinkly (onset of the response) ([15]; minimal medium agar plates, 24 h, 30 °C, wild-type R6): 100 µM"
NC(=O)CC[C@H](N)C(=O)O [L-Gln],–,–,–,–,–,–,–,–,–,did not produce any significant shift,–
C[N+](C)(C)CCO [choline],–,–,–,–,–,–,–,–,–,did not produce any significant shift,–
CN [methylamine],–,–,–,–,–,–,–,–,–,did not produce any significant shift,–
Nc1cc[nH]c(=O)n1 [Cytosine],Nb^a,"Nts^b (no binding observed in thermal shift assays, i.e., compounds caused changes in the midpoint of protein unfolding (Tm) of less than 2 °C)",Nb^a,105 ± 20,0.46,74 ± 15,"Nts^b (no binding observed in thermal shift assays, i.e., compounds caused changes in the midpoint of protein unfolding (Tm) of less than 2 °C)",1460,–,–,"N value, R1 (R1 (WP_219614703-LBD) [7]; [18]): 0.21"
N[C@@H](Cc1c[nH]c2ccccc12)C(=O)O [L-Trp],–,–,–,–,–,–,–,–,–,did not produce any significant shift,–
NC(=O)NC1NC(=O)NC1=O (stereo not shown) [Allantoin],Nb^a,"Nts^b (no binding observed in thermal shift assays, i.e., compounds caused changes in the midpoint of protein unfolding (Tm) of less than 2 °C)",–,–,–,–,"Nts^b (no binding observed in thermal shift assays, i.e., compounds caused changes in the midpoint of protein unfolding (Tm) of less than 2 °C)",–,"Nts^b (no binding observed in thermal shift assays, i.e., compounds caused changes in the midpoint of protein unfolding (Tm) of less than 2 °C)",–,"Binding in thermal shift assay, R15 (R15 (WP_207952809-LBD) [17]): Nts^b (no binding observed in thermal shift assays, i.e., compounds caused changes in the midpoint of protein unfolding (Tm) of less than 2 °C); Binding in microcalorimetric titration, R8 (R8 (WP_227113344-LBD); 25 °C, pH 6.0): Nb^a; Binding in microcalorimetric titration, R14 (R14 (WP_021170906-LBD) [4]; ITC, 25 °C): Nb^a"
NCCO [ethanolamine],–,–,–,–,–,–,–,–,–,did not produce any significant shift,–
